Experimental data: patent publication US10273313B2, “Multimeric mannosides, a process for preparing the same and their uses as a drug” (CENTRE NATIONAL DE LA RECHERCHE SCIENTIFIQUE, priority 2012, dated 2019)
Values after ≈ are worked out from the molar mass of the structure shown. Where two headings read alike, the source gives them in different places.

Legend:
[1] = tested on: E. coli strain UTI89 in the bladder of C3H/HeN mice; assay: In vivo inhibition in the murine cystitis model (instillation with UTI89)
Experimental: In vivo inhibition was evaluated by instilling 1-4 together with the UTI89 strain via a catheter in the bladder of C3H/HeN mice. […] A group of ten animals was used for each concentration of antagonists. […] The animals were sacrificed at a 6 h post infection time.
A murine model of urinary tract infection was used to test the ability of the compounds to inhibit the colonization of UTI89 in the bladder [Hung C. S.; Dodson, K. W., Hultgren S. J. Nat. Protoc. 2009, 4, 1230-1243 and Wellens A.; Garofalo C.; Nguyen H.; Van Gerven N.; Slättegård R.; Hernalsteens, J.-P.; Wyns, L.; Oscarson, S.; De Greve H.; Hultgren S. J.; Bouckaert, J. PLoS ONE 2008, 3, e2040]. The solution with high concentration of compounds was added to the resuspension of UTI89 before given to the mice. The eight-week old Female C3H/HeN mice (Harlan, Horst, The Netherlands) were anesthetized and infected via transurethral catheterization of 10^7 CFU UTI89 in solution in PBS, or in PBS with the compound in the mentioned concentration. The mice were sacrificed at 24 hours post infection and the bladders were harvested, homogenized and resuspended in PBS. The serial dilutions were spot on LB medium agar plates. The bacterial load was determined by counting the CFU recovered from the bladder. The animal experiments were approved by the Ethical Committer for Animal Experiments of Vrije Universiteit Brussel and complied with all relevant national legislation and institutional policies. The Mann-Whitney test was applied for the comparison of the data obtained from the untreated group and inhibition group in GraphPad Prism version 5.1 and two tailed P value were shown (GraphPad software).
A limited number of papers described the in vivo efficiency of anti-adhesive mannosides to treat UTIs.

bladder cell line 5637 = assay: Anti-adhesives for bacterial bladder cell binding; format: cell-based; conditions: ten-fold dilution series
Experimental: The anti-adhesive capacities of the HM-derivatized cyclodextrins 1-4 were tested in vitro on the bladder cell line 5637, in a procedure analogous as previously described (Wellens, A. et al., PLoS ONE 3: e2040 (2008)). The CD conjugates 1-4 were diluted in a ten-fold series. The minimum inhibitory concentrations (MIC) indicate the concentrations of sugars at which we see some inhibition of binding of FimH to the bladder cells, they do however not indicate complete inhibition. MIC values for the CD-conjugates 1-4 followed a similar trend as the inhibitory concentrations recorded in HIA.
The anti-adhesive capacities of the n-heptyl α-D-mannoside-derivatized cyclodextrins 1-4 were tested in vitro on the bladder cell line 5637, in a procedure analogous to as described in (Wellens, A. et al., PLoS ONE 3: e2040 (2008)). The ligands have been diluted 10-fold and this is also the resolution limit of these tests.

[2] = tested on: AIEC LF82 bacteria adhesion to T84 intestinal epithelial cells; assay: Adhesion assay on T84 cells, pre-, co- and post-incubation protocols (Example 21.2); format: cell-based, Escherichia coli
Experimental: (§1) E. coli strain LF82 was isolated from a chronic ileal lesion of a patient with Crohn's disease (CD). Bacteria were grown routinely in Luria-Bertani (LB) broth overnight at 37° C. Intestinal epithelial cells T84 derived from colonic adenocarcinoma were maintained in an atmosphere containing 5% CO2 at 37° C. in DMEM/F12 (50/50) medium supplemented with 10% (v/v) heat-inactivated fetal calf serum (FCS), 1% L-glutamine, 100 000 U·l^−1 penicillin, 100 mg·l^−1 streptomycin, 25 μg·l^−1 amphotericin B.
T84 were seeded in 48-well plates at a concentration of 1.5×10^5 cells per well and grown for 48 h. AIEC LF82 bacteria were incubated 1 h with each mannoside prior the cell infection (pre-incubation protocol) or they were added simultaneously onto the cells (co-incubation protocol) in complete medium without antibiotics, containing heat inactivated fetal calf serum (FCS). Heptyl-mannose or compound 2 (example 1) were tested at a dose of 100; 10; 1 or 0.1 μM. D-D-mannose was tested at a dose of 10 000; 1 000; 100 or 10 μM and compound 1 (example 2bis) was tested at a concentration of 500; 100; 10 or 1 μM. Cells were infected with AIEC LF82 bacteria at a multiplicity of infection (MOI) of 10 bacteria per cell for 3 h at 37° C. For the post-incubation protocol, mannosides were incubated with cells for 3 h after bacterial infection. A washing step was realized before this post-incubation to eliminate non-adherent bacteria. Monolayers were washed in phosphate-buffered saline (PBS; pH 7.2) and cells were then lysed with 1% Triton X-100 in deionized water. Samples were diluted and plated onto Luria Bertani agar plates to determine the number of colony-forming units (CFU) recovered from the lysed monolayers. Results were expressed as percentages of residual adhesion, considering adhesion level of AIEC LF82 without mannoside treatment as 100%.

[3] = tested on: type-1 piliated clinical E. coli isolate UTI89; assay: Haemagglutination inhibition assay (HIA), guinea pig erythrocytes; format: cell-based, Escherichia coli; conditions: read-out: Minimal inhibitory concentration (MIC) on haemagglutination
Experimental: Haemagglutination is observed as the red blood cells being held in suspension through the formation of a space-filling cross-linked network with the fimbriated bacteria.
The UIT89 clinical isolate was grown statically 37° C. for 48 hours in LB medium and analysed for haemagglutination of guinea pig red blood cells. Both bacteria and red blood cells (RBCs) were washed 3 times in ice-cold PBS (17 mM K/NaH2PO4, 150 mM NaCl). PBS was used for all dilutions. 96-well round-bottom microtiter plates were used for the dilutions. The titer for agglutination was determined in a 2-fold dilution series in PBS of the bacteria in a volume of 25 μL. Well 1 is a negative control without bacteria but 25 μL PBS. 25 μL PBS and 50 μL 5% RBCs were added to a final 100 μL volume. Upon 1 hour at 4° C., the titer was determined as the lowest concentration of bacteria that led to haemagglutination.
A bacterial concentration of twice the determined haemagglutination titer was kept constant in the haemagglutination inhibition assays. First, a 2-fold dilution series of the inhibitory compounds was performed in 25 μL PBS. Instead, in well 1 only 25 μL PBS was added as a negative control. 25 μL of the bacterial solution and 50 μl of 5% red blood cells were added to reach a final volume of 100 μL.

[4] = target: T1, monovalent lectin domain of FimH (Escherichia coli, UniProt P08191); format: binding; conditions: for Kd / Molar ratio n meas / ΔG° / ΔH° / ΔS°: direct titration; for Kd: read-out: Kd
T1 construct: with the monovalent lectin domain of FimH were measured using isothermal calorimetry (ITC)

[5] = tested on: AIEC LF82 strain adhesion to T84 intestinal epithelial cells; assay: Adhesion assay on T84 cells, cells incubated 1 h with mannoside prior infection (Example 21.1); format: cell-based, Escherichia coli
Experimental: as §1
T84 cells were seeded in 48-well tissue culture plates with 1.5×10^5 cells per well and grown for 48 h. Cells were incubated 1 h prior infection with each mannoside at a final concentration of 100; 10; 1 or 0.1 μM in complete medium without antibiotics, containing heat inactivated fetal calf serum (FCS) and were next infected with AIEC LF82 strain at a multiplicity of infection (MOI) of 10 bacteria per cell. After a 3 h incubation period at 37° C., the monolayers were washed in phosphate-buffered saline (PBS; pH 7.2). The epithelial cells were then lysed with 1% Triton X-100 in deionized water. Samples were diluted and plated onto Luria Bertani agar plates to determine the number of cfu recovered from the lysed monolayers.
Results were expressed in percentage of residual adhesion, considering adhesion level of AIEC LF82 without mannoside treatment as 100%.

[6] = tested on: AIEC LF82 bacteria in colonic loops of CEABAC10 mice expressing human CEACAM6; assay: Adhesion assay in colonic loops of CEABAC10 mice; format: in vivo; conditions: dose of 0.1 μmol, 4 h incubation
Experimental: E. coli strain LF82 was isolated from a chronic ileal lesion of a patient with Crohn's disease (CD). Bacteria were grown routinely in Luria-Bertani (LB) broth overnight at 37° C.
The transgenic mouse model CEABAC10 expressing the human CEACAM6 protein is available in the UMR Inserm/Université d'Auvergne 1071 led by Professor Arlette Darfeuille-Michaud at Clermont-Ferrand. This model is particularly suitable to reproduce the abnormal colonization by AIEC bacteria through the interaction with CEACAM6 molecules that were observed abnormally expressed in the ileal mucosa of Crohn's disease patients.
Three colonic loops were realized in anesthetized CEABAC10 mice. A volume of 100 μl of a bacterial suspension containing 6×10^6 bacteria/mL with or without inhibitory compound was injected into the loops (here, compound 2, example 1) or heptyl-mannose at a concentration of 100 μM). After an incubation period of 4 h, mice were euthanized and each loop was longitudinally opened, extensively washed and homogenized to numerate adherent LF82 bacteria. Bacterial adhesion was expressed as percentages of residual adhesion (100% corresponds to the adhesion in absence of any compound).

[7] = excluding spiky heat signals (2)

T1 sequence (P08191 22-179): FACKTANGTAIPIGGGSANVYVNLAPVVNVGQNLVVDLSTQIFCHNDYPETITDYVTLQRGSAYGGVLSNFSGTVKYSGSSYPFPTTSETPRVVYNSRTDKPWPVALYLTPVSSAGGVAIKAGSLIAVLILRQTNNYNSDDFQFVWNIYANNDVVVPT

## OC[C@H]1O[C@H](OCCCCCCCOCc2cn(C[C@H]3O[C@@H]4O[C@H]5[C@H](O)[C@@H](O)[C@@H](O[C@H]6[C@H](O)[C@@H](O)[C@@H](O[C@H]7[C@H](O)[C@@H](O)[C@@H](O[C@H]8[C@H](O)[C@@H](O)[C@@H](O[C@H]9[C@H](O)[C@@H](O)[C@@H](O[C@H]%10[C@H](O)[C@@H](O)[C@@H](O[C@H]3[C@H](O)[C@H]4O)O[C@@H]%10CO)O[C@@H]9CO)O[C@@H]8CO)O[C@@H]7CO)O[C@@H]6CO)O[C@@H]5CO)nn2)[C@@H](O)[C@@H](O)[C@@H]1O [Compound 1]
[1]; 0.1 mM
  Inhibition efficiency at decreased concentration: important drop in the inhibition efficiency
[1]; instillation of 1 mM with UTI89
  Reduction of the level of infection: 10 fold
Bladder cell line 5637
  MIC, anti-adhesive potency on bladder cell line 5637: >400 µM
[2]; post-incubation, 500 μM
  Bacteria adherent to intestinal epithelial cells eliminated: ≤ 40%
[2]; pre-incubation assay
  Concentration leading to decreased adhesion levels of at least 50%: 500 µM
[3]; UTI89 1.2 10^9 CFU/ml
  MIC: >200 µM
[3]; UTI89 1.4 10^8 CFU/ml
  MIC: 100 µM (≈ 149 µg/mL)
[3]; UTI89 7 10^7 CFU/ml
  MIC: 63 µM (≈ 94 µg/mL)
[4]; ITC
  Affinity of FimH for the ligand (in words): micromolar range
[4]; data processed to exclude spiky heat signals (2)
  Kd: 0.625 µM
[4]; data processed to include the whole binding event (1)
  Kd: 1.64 µM
[4]; [7]
  Molar ratio n meas: 0.36
  ΔG°: -35.1 kJ/mol
  ΔH°: -23.4 kJ/mol
  ΔS°: 9.7 cal/mol/deg
[4]; whole binding event (1)
  Molar ratio n meas: 0.35
  ΔG°: -32.6 kJ/mol
  ΔH°: -30.1 kJ/mol
  ΔS°: 2.2 cal/mol/deg
[5]
  Concentration reaching around 75% of binding inhibition (25% line): 500 µM

## CCCCCCCO[C@H]1O[C@H](CO)[C@@H](O)[C@H](O)[C@@H]1O [heptyl-mannoside, Heptyl α-D-mannoside, reference compound]
[6]
  Bacterial adhesion in colonic loops compared with no inhibitor: did not decrease significantly
